Measurements published in US6821980B1, “Substituted 5-benzyl-2,4-diaminopyrimidines” (Basilea Pharmaceutica AG, priority 1999, dated 2004).
pIC50: −log10 of the molar value. Converted amounts (≈) assume the structure as drawn. Read-outs that look alike come from different tables or passages of the source.

Key:
[1] = target: T1, purified DHFR of strain Sp1/1 of Streptococcus pneumoniae (Streptococcus pneumoniae serotype 4, UniProt Q54801); format: biochemical; details: IC50 against purified DHFR of strain Sp1/1
T1 sequence (Q54801 1-168 I100L): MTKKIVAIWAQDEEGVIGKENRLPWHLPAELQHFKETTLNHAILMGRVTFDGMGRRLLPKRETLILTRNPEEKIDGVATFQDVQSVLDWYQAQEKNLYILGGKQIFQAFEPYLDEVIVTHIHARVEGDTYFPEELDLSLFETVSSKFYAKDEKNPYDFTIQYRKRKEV

[2] = target: purified DHFR of strain 157/4696 of Staphylococcus aureus (Staphylococcus aureus, UniProt P13955); experiment: biochemical
[3] = test system: Staphylococcus aureus 101; experiment: MIC against Staphylococcus aureus 101; format: cell-based; details: Staphylococcus aureus 101, MRSA- and trimethoprim-resistant, clinical isolate, read-out: MIC Sa101
[4] = test system: Streptococcus pneumoniae 1/1; experiment: MIC against Streptococcus pneumoniae 1/1; format: cell-based; details: Streptococcus pneumoniae 1/1, trimethoprim- and penicillin-resistant, serotype 6, clinical isolate, read-out: MIC Sp1/1

purified DHFR of strain 157/4696 of Staphylococcus aureus, sequence (P13955 whole entry): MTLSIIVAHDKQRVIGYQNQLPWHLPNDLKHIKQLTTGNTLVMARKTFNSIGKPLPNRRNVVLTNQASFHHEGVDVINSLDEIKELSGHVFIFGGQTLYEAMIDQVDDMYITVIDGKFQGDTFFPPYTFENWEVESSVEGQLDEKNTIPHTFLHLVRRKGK

CCOc1cc(Cc2cnc(N)nc2N)cc(OS(=O)(=O)CC)c1-c1cccc(N)c1 [Example 14-b, Ethanesulphonic acid 3′-amino-4-(2,4-diamino-pyrimidin-5-ylmethyl)-6-ethoxy-biphenyl-2-yl ester]
pIC50 ([1]; Table 2): 7.72 | pIC50 [2]: 6.85 | MIC ([3]; Table 2): 2 µg/mL (≈ 4.51 µM) | MIC ([4]; Table 2): 2 µg/mL (≈ 4.51 µM)

CCCS(=O)(=O)Oc1cc(Cc2cnc(N)nc2N)cc(OCC)c1-c1cccc(N)c1 [Example 14-d]
pIC50 ([1]; Table 2): 7.80 | pIC50 [2]: 7.09 | MIC ([3]; Table 2): 2 µg/mL (≈ 4.37 µM) | MIC ([4]; Table 2): 1 µg/mL (≈ 2.19 µM)

CCOc1cc(Cc2cnc(N)nc2N)cc(OS(=O)(=O)c2ccc(OC)c(F)c2)c1-c1cccc(N)c1 [Example 14-e, 3-Fluoro-4-methoxy-benzenesulphonic acid 3′-amino-4-(2,4-diamino-pyrimidin-5-ylmethyl)-6-ethoxy-biphenyl-2-yl ester]
pIC50 ([1]; Table 2): 7.92 | pIC50 [2]: 6.39 | MIC ([3]; Table 2): 8 µg/mL (≈ 14.8 µM) | MIC ([4]; Table 2): 1 µg/mL (≈ 1.85 µM)

CCOc1cc(Cc2cnc(N)nc2N)cc(OS(=O)(=O)c2cccs2)c1-c1cccc(N)c1 [Example 14-f, Thiophene-2-sulphonic acid 3′-amino-4-(2,4-diamino-pyrimidin-5-ylmethyl)-6-ethoxy-biphenyl-2-yl ester]
pIC50 ([1]; Table 2): 8.74 | pIC50 [2]: 6.49 | MIC ([3]; Table 2): 4 µg/mL (≈ 8.04 µM) | MIC ([4]; Table 2): 1 µg/mL (≈ 2.01 µM)

CCOc1cc(Cc2cnc(N)nc2N)cc(OS(=O)(=O)CC(C)C)c1-c1cccc(N)c1 [Example 14-h, 2-Methyl-propane-1-sulphonic acid 3′-amino-4-(2,4-diamino-Dyrimidin-5-ylmethyl)-6-ethoxy-biphenyl-2-yl ester]
pIC50 ([1]; Table 2): 8.32 | pIC50 [2]: 6.49 | MIC ([3]; Table 2): 2 µg/mL (≈ 4.24 µM) | MIC ([4]; Table 2): 0.5 µg/mL (≈ 1.06 µM)

CCOc1cc(Cc2cnc(N)nc2N)cc(OS(=O)(=O)CC(C)(C)C)c1-c1cccc(N)c1 [Example 14-i, 2,2-Dimethyl-propane-1-sulphonic acid 3′-amino-4-(2,4-diamino-pyrimidin-5-ylmethyl)-6-ethoxy-biphenyl-2-yl ester]
pIC50 ([1]; Table 2): 8.27 | pIC50 [2]: 6.66 | MIC ([3]; Table 2): 8 µg/mL (≈ 16.5 µM) | MIC ([4]; Table 2): 0.5 µg/mL (≈ 1.03 µM)

CCOc1cc(Cc2cnc(N)nc2N)cc(OS(=O)(=O)C(C)C)c1-c1cccc(N)c1 [Example 14c, Propane-2-sulphonic acid 3′-amino-4-(2,4-diamino-pyrimidin-5-ylmethyl)-6-ethoxy-biphenyl-2-yl ester]
pIC50 ([1]; Table 1): 7.70 | pIC50 [2]: 7.21 | MIC ([3]; Table 1): 1 µg/mL (≈ 2.19 µM) | MIC ([4]; Table 1): 1 µg/mL (≈ 2.19 µM)

CCOc1cc(Cc2cnc(N)nc2N)cc(OS(=O)(=O)C(C)CC)c1-c1cccc(N)c1 (centres unmarked) [Example 14g, Butane-2-sulphonic acid 3′-amino-4-(2,4-diamino-pvrimidin-5-ylmethyl)-6-ethoxy-biphenyl-2-yl ester]
pIC50 ([1]; Table 1): 8.43 | pIC50 [2]: 7.52 | MIC ([3]; Table 1): 1 µg/mL (≈ 2.12 µM) | MIC ([4]; Table 1): 1 µg/mL (≈ 2.12 µM)

CCOc1cc(Cc2cnc(N)nc2N)cc(OS(C)(=O)=O)c1-c1ccc(O)cc1 [Example 15-a, Methanesulphonic acid 4-(2,4-diamino-pyrimidin-5-ylmethyl)-6-ethoxy-4′-hydroxy-biphenyl-2-yl ester]
pIC50 ([1]; Table 2): 7.49 | pIC50 [2]: 6.26 | MIC ([3]; Table 2): 8 µg/mL (≈ 18.6 µM) | MIC ([4]; Table 2): 4 µg/mL (≈ 9.29 µM)

CCOc1cc(Cc2cnc(N)nc2N)cc(OS(=O)(=O)CC)c1-c1ccc(O)cc1 [Example 15-b, Ethanesulphonic acid 4-(2,4-diamino-pyrimidin-5-ylmethyl)-6-ethoxy-4′-hydroxy-biphenyl-2-yl ester]
pIC50 ([1]; Table 2): 7.64 | pIC50 [2]: 6.74 | MIC ([3]; Table 2): 4 µg/mL (≈ 9 µM) | MIC ([4]; Table 2): 2 µg/mL (≈ 4.5 µM)

CCOc1cc(Cc2cnc(N)nc2N)cc(OS(=O)(=O)C(C)C)c1-c1ccc(O)cc1 [Example 15-c, Propane-2-sulphonic acid 4-(2,4-diamino-pyrimidin-5-ylmethyl)-6-ethoxy-4′-hydroxy-biphenyl-2-yl ester]
pIC50 ([1]; Table 2): 7.92 | pIC50 [2]: 7.19 | MIC ([3]; Table 2): 1 µg/mL (≈ 2.18 µM) | MIC ([4]; Table 2): 1 µg/mL (≈ 2.18 µM)

CCCS(=O)(=O)Oc1cc(Cc2cnc(N)nc2N)cc(OCC)c1-c1ccc(O)cc1 [Example 15-d, Propane-1-sulphonic acid 4-(2,4-diamino-primidin-5-ylmethyl)-6-ethoxy-4′-hydroxy-biphenyl-2-yl ester]
pIC50 ([1]; Table 2): 7.74 | pIC50 [2]: 7.21 | MIC ([3]; Table 2): 2 µg/mL (≈ 4.36 µM) | MIC ([4]; Table 2): 1 µg/mL (≈ 2.18 µM)

CCOc1cc(Cc2cnc(N)nc2N)cc(OS(=O)(=O)C2CC2)c1-c1ccc(O)cc1 [Example 15-e, Cylopropanesulphonic acid 4-(2,4-diamino-pyrimidin-5-ylmethyl)-6-ethoxy-4′-hydroxn-biphenyl-2-yl ester]
pIC50 ([1]; Table 2): 7.92 | pIC50 [2]: 7.03 | MIC ([3]; Table 2): 8 µg/mL (≈ 17.5 µM) | MIC ([4]; Table 2): 1 µg/mL (≈ 2.19 µM)

CCOc1cc(Cc2cnc(N)nc2N)cc(OS(=O)(=O)CC(C)C)c1-c1ccc(O)cc1 [Example 15-f, 2-Methyl-propane-1-sulphonic acid 4-(2,4-diamino-pyrimidin-5-ylmethyl)-6-ethoxy-4′-hydroxy-biphenyl-2-yl ester]
pIC50 ([1]; Table 2): 8.17 | pIC50 [2]: 6.42 | MIC ([3]; Table 2): 4 µg/mL (≈ 8.46 µM) | MIC ([4]; Table 2): 0.5 µg/mL (≈ 1.06 µM)

CCOc1cc(Cc2cnc(N)nc2N)cc(OS(=O)(=O)C(C)CC)c1-c1ccc(O)cc1 (centres unmarked) [Example 15-g, Butane-2-sulphonic acid 4-(2,4-diamino-Dyrimidin-5-ylmethyl)-6-ethoxy-4′-hydroxy-biphenyl-2-yl ester]
pIC50 ([1]; Table 2): 7.60 | pIC50 [2]: 7.41 | MIC ([3]; Table 2): 2 µg/mL (≈ 4.23 µM) | MIC ([4]; Table 2): 0.5 µg/mL (≈ 1.06 µM)

CCOc1cc(Cc2cnc(N)nc2N)cc(OS(=O)(=O)CC(C)(C)C)c1-c1ccc(O)cc1 [Example 15-h, 2,2-Dimethyl-propane-1-sulphonic acid 4-(2,4-diamino-pyrimidin-5-ylmethyl)-6-ethoxy-4′-hydroxa-biphenyl-2-yl ester]
pIC50 ([1]; Table 2): 8.39 | pIC50 [2]: 6.04 | MIC ([3]; Table 2): 4 µg/mL (≈ 8.22 µM) | MIC ([4]; Table 2): 0.25 µg/mL (≈ 0.514 µM)

CCOc1cc(Cc2cnc(N)nc2N)cc(OS(=O)C(C)(C)C)c1-c1ccc(O)cc1 (centres unmarked) [Example 15-i, 2-Methyl-propane-2-sulphinic acid 4-(2,4-diamino-pyrimidin-5-ylmethyl)-6-ethoxy-4′-hydroxy-biphenyl-2-yl ester]
pIC50 ([1]; Table 2): 7.66 | pIC50 [2]: 7.09 | MIC ([3]; Table 2): 2 µg/mL (≈ 4.38 µM) | MIC ([4]; Table 2): 4 µg/mL (≈ 8.76 µM)

CCOc1cc(Cc2cnc(N)nc2N)cc(OS(=O)(=O)c2ccc(OC)c(F)c2)c1-c1ccc(O)cc1 [Example 15-j, 3-Fluoro-4-methoxy-benzenesulphonic acid 4-(2,4-diamino-pyrimidin-5-ylmethyl)-6-ethoxy-4′-hydroxy-biphenyl-2-yl ester]
pIC50 ([1]; Table 2): 8.77 | pIC50 [2]: 6.26 | MIC ([3]; Table 2): 8 µg/mL (≈ 14.8 µM) | MIC ([4]; Table 2): 1 µg/mL (≈ 1.85 µM)

CCOc1cc(Cc2cnc(N)nc2N)cc(OS(C)(=O)=O)c1-c1ccc(OC)cc1 [Example 16-a, Methanesulphonic acid 4-(2,4-diamino-pyrimidin-5-ylmethyl)-6-ethoxy-4′-methoxy-biphenyl-2-yl ester]
pIC50 ([1]; Table 2): 7.68 | pIC50 [2]: 6.51 | MIC ([3]; Table 2): 4 µg/mL (≈ 9 µM) | MIC ([4]; Table 2): 2 µg/mL (≈ 4.5 µM)

CCOc1cc(Cc2cnc(N)nc2N)cc(OS(=O)(=O)CC)c1-c1ccc(OC)cc1 [Example 16-b, Ethanesulphonic acid 4-(2,4-diamino-pyrimidin-5-ylmethyl)-6-ethoxy-4′-methoxy-biphenyl-2-yl ester]
pIC50 ([1]; Table 2): 7.41 | pIC50 [2]: 7.00 | MIC ([3]; Table 2): 2 µg/mL (≈ 4.36 µM) | MIC ([4]; Table 2): 2 µg/mL (≈ 4.36 µM)

CCOc1cc(Cc2cnc(N)nc2N)cc(OS(=O)(=O)C(C)C)c1-c1ccc(OC)cc1 [Example 16-c, Propane-2-sulphonic acid 4-(2,4-diamino-Ryimidin-5-ylmethyl)-6-ethoxy-4′-methoxy-biphenyl-2-yl ester]
pIC50 ([1]; Table 2): 7.74 | pIC50 [2]: 6.59 | MIC ([3]; Table 2): 2 µg/mL (≈ 4.23 µM) | MIC ([4]; Table 2): 2 µg/mL (≈ 4.23 µM)

CCOc1cc(Cc2cnc(N)nc2N)cc(OS(C)(=O)=O)c1-c1ccc2c(c1)OCO2 [Example 17-a, Methanesulphonic acid 2-benzof[1,3]dioxol-5-yl-5-(2,4-diamino-Ryrimidin-5-ylmethyl)-3-ethoxy-phenyl ester]
pIC50 ([1]; Table 2): 7.42 | pIC50 [2]: 6.22 | MIC ([3]; Table 2): 4 µg/mL (≈ 8.72 µM) | MIC ([4]; Table 2): 2 µg/mL (≈ 4.36 µM)

CCOc1cc(Cc2cnc(N)nc2N)cc(OS(=O)(=O)CC)c1-c1ccc2c(c1)OCO2 [Example 17-b, Ethanesulphonic acid 2-benzo[1.3]dioxol-5-yl-5-(2,4-diamino-Iyrimidin-5-ylmethyl)-3-ethoxy-phenyl ester]
pIC50 ([1]; Table 2): 7.42 | pIC50 [2]: 6.43 | MIC ([3]; Table 2): 4 µg/mL (≈ 8.47 µM) | MIC ([4]; Table 2): 2 µg/mL (≈ 4.23 µM)

CCOc1cc(Cc2cnc(N)nc2N)cc(OS(=O)(=O)C(C)C)c1-c1ccc2c(c1)OCO2 [Example 17-c, Propane-2-sulphonic acid 2-benzo[1.3]dioxol-5-yl-5-(2,4-diamino-pyrimidin-5-ylmethyl)-3-ethoxy-phenyl ester]
pIC50 ([1]; Table 2): 7.48 | pIC50 [2]: 6.74 | MIC ([3]; Table 2): 2 µg/mL (≈ 4.11 µM) | MIC ([4]; Table 2): 2 µg/mL (≈ 4.11 µM)

CCCS(=O)(=O)Oc1cc(Cc2cnc(N)nc2N)cc(OCC)c1-c1ccc2c(c1)OCO2 [Example 17-d, Propane-1-sulphonic acid 2-benzo[1.3]dioxol-5-yl-5-(2,4-diamino-pyrimidin-5-ylmethyl)-3-ethoxy-phenyl ester]
pIC50 ([1]; Table 2): 7.85 | pIC50 [2]: 6.82 | MIC ([3]; Table 2): 4 µg/mL (≈ 8.22 µM) | MIC ([4]; Table 2): 1 µg/mL (≈ 2.06 µM)

CCOc1cc(Cc2cnc(N)nc2N)cc(OS(=O)(=O)C(C)C)c1-c1ccc(N)cc1 [Example 18, Propane-2-sulphonic acid 4′-amino-4-(2,4-diamino-pyrimidin-5-ylmethyl)-6-ethoxy-biphenyl-2-yl ester]
pIC50 ([1]; Table 1): 8.25 | pIC50 [2]: 7.41 | MIC ([3]; Table 1): 2 µg/mL (≈ 4.37 µM) | MIC ([4]; Table 1): 1 µg/mL (≈ 2.19 µM)
